In paper PMC8305236, “New Broth Macrodilution Volatilization Method for Antibacterial Susceptibility Testing of Volatile Agents and Evaluation of Their Toxicity Using Modified MTT Assay In Vitro” (Molecules, 2021):
Converted amounts (≈) assume the structure as drawn. Read-outs that look alike come from different tables or passages of the source. Values belong to the compound of their own block, whether it stands above or below them.

How the values were obtained:
[1] = tested on: Haemophilus influenzae ATCC 49247; assay: broth macrodilution volatilization method (liquid and vapor phase MIC); assay type: cell-based
From the text: (§1) The following four bacterial standard strains from the American Type Culture Collection (ATCC, Manassas, VA, USA) were used: Haemophilus influenzae ATCC 49247, Staphylococcus aureus ATCC 29213, Streptococcus pneumoniae ATCC 49619, and Streptococcus pyogenes ATCC 19615. Cultivation and assay media (broth/agar) were Mueller–Hinton (MH) complemented by Haemophilus Tested Medium (H. influenzae), MH (S. aureus), and Brain Heart Infusion (S. pneumoniae and S. pyogenes). The pH of the broths was equilibrated to a final value of 7.6 using Trizma base (Sigma-Aldrich, Praha, Czech Republic). […] cultivation media were purchased from Oxoid (Basingstoke, UK).
(§2) Stock cultures of bacterial strains were cultivated in broth medium at 37 °C for 24 h prior to testing. For the preparation of inoculum, the turbidity of the bacterial suspension was adjusted to 0.5 McFarland standard using a Densi-La-Meter II (Lachema, Brno, Czech Republic) to obtain a final concentration of 10^8 CFU/mL.
(§3) The antibacterial potential of volatile plant-derived compounds in the liquid and vapor phases was determined using a newly developed broth macrodilution volatilization method performed in standard 2 mL microtubes with snap caps (Eppendorf, Hamburg, Germany). Initially, each sample of compound was dissolved in DMSO at maximum concentration of 1% and diluted in the appropriate broth medium. […] The concentration of β-thujaplicin started from 1024 µg/mL and from 128 µg/mL for thymohydroquinone and thymoquninone. In the second step, 90 µL of melted agar was pipetted into rims on the caps (Figure 3a) and inoculated with 5 µL of bacterial suspension after agar solidification. Subsequently, the appropriate concentrations of each sample previously prepared in test tubes were pipetted into microtubes in a final volume of 1500 µL. Then, the microtubes were inoculated with 10 µL of bacterial suspension and closed properly (Figure 3b). Microtubes containing inoculated and non-inoculated media were prepared as growth and purity controls simultaneously. After incubation at 37 °C for 24 h, the MICs were evaluated by the visual assessment of bacterial growth after coloring metabolically active bacterial colonies with MTT dye. The respective volumes of 30 and 375 µL of MTT at a concentration of 600 µg/mL were pipetted into the caps and in the microtubes when the interface of color change from yellow to purple (relative to that of colors in control wells) was recorded in broth and agar (Figure 3c). […] The MIC values were determined as the lowest concentrations that inhibited bacterial growth compared with the compound-free control and are expressed in µg/mL. In the case of the vapor phase, the concentration was also expressed in µg/cm^3 as the weight of the volatile agent per volume unit of a microtube. […] The respective susceptibilities of H. influenzae, S. aureus, S. pneumoniae, and S. pyogenes to ampicillin, oxacillin, amoxicillin, and tetracycline were checked as positive antibiotic controls. All tests were performed as three independent experiments, each carried out in triplicate, and the results were presented as median/modal values. According to the widely accepted norm in MIC testing, the mode and median were used for the final value calculation when triplicate endpoints were within the two- and three-dilution ranges, respectively.

[2] = tested on: Streptococcus pyogenes ATCC 19615; assay: as above; assay type: cell-based; details: Streptococcus pyogenes, ATCC19615
From the text: as §1, §2, §3

[3] = modified MTT cytotoxicity assay; details: human, MRC-5 normal lung fibroblast cells
Description: (§4) Lung fibroblast cell line MRC-5, obtained from ATCC, was propagated in Eagle’s Minimum Essential Medium (EMEM) supplemented with 10% fetal bovine serum (FBS), 2 mM glutamine, 10 µL/mL non-essential amino acids, and 1% penicillin–streptomycin solution (10,000 units/mL of penicillin and 10 mg/mL of streptomycin); all these components were purchased from Sigma-Aldrich. The cells were pre-incubated in 96-well microtiter plates at a density of 2.5 × 10^3 cells per well for 24 h at 37 °C in a humidified incubator in an atmosphere of 5% CO2 in air.
(§5) A modified method based on the metabolization of MTT to blue formazan by mitochondrial dehydrogenases in living lung cells previously described by Mosmann was used. The lung fibroblast cells were treated for 72 h with the tested compounds dissolved in DMSO at a maximum concentration of 1% and diluted in the EMEM medium supplemented with 10% FBS. Twelve two-fold serially diluted concentrations of these agents ranging from 512 to 0.25 µg/mL were prepared. The microtiter plates were covered with EVA capmats^TM at 37 °C in a humidified atmosphere of 5% CO2 in air and cultivated for 72 h. Thereafter, MTT reagent (1 mg/mL) in EMEM solution was added to each well and the plates were incubated for an additional 2 h at 37 °C in a humidified atmosphere of 5% CO2 in air. The media were removed, and the intracellular formazan product was dissolved in 100 µL of DMSO. […] The absorbance was measured at 555 nm using a Tecan Infinite M200 spectrometer (Tecan Group, Mannedorf, Switzerland), and the viability was calculated in comparison to that of the untreated control. Three independent experiments (two replicates each) were performed for each test. […] Furthermore, IC80 was calculated as equivalent to the MIC endpoint for comparison of microbiological and toxicological data. Therapeutic indices (TIs) were defined as the ratio of x¯ -IC80 and x¯ -MIC values with the aim of determining the amount of effective antibacterial agents with the quantity causing toxicity.

[4] = tested on: normal lung fibroblast cells MRC-5; assay: modified MTT cytotoxicity assay
Description: as §4, §5

[5] = tested on: respiratory pathogens; assay: broth macrodilution volatilization method, all four bacteria together; assay type: cell-based; details: mean value of minimal inhibitory concentrations in broth medium
From the text: as §1, §2
The antibacterial potential of volatile plant-derived compounds in the liquid and vapor phases was determined using a newly developed broth macrodilution volatilization method performed in standard 2 mL microtubes with snap caps (Eppendorf, Hamburg, Germany). Initially, each sample of compound was dissolved in DMSO at maximum concentration of 1% and diluted in the appropriate broth medium. […] After incubation at 37 °C for 24 h, the MICs were evaluated by the visual assessment of bacterial growth after coloring metabolically active bacterial colonies with MTT dye. The respective volumes of 30 and 375 µL of MTT at a concentration of 600 µg/mL were pipetted into the caps and in the microtubes when the interface of color change from yellow to purple (relative to that of colors in control wells) was recorded in broth and agar (Figure 3c). […] The MIC values were determined as the lowest concentrations that inhibited bacterial growth compared with the compound-free control and are expressed in µg/mL. […]

[6] = tested on: Staphylococcus aureus ATCC 29213; assay: broth macrodilution volatilization method (liquid and vapor phase MIC); assay type: cell-based
From the text: as §1, §2, §3

[7] = tested on: Streptococcus pneumoniae ATCC 49619; assay: as above; assay type: cell-based; details: Streptococcus pneumoniae, ATCC49619
From the text: as §1, §2, §3

[8] = tested on: S. aureus; details: S. aureus ATCC 25923; cited from earlier work
[9] = tested on: mouse fibroblasts; set-up: method as in PMID 17080016; details: cited from earlier work
[10] = liquid phase, 37 °C, 24 h, read-out: Minimal Inhibitory Concentration, Broth
[11] = vapor phase, 37 °C, 24 h, read-out: Minimal Inhibitory Concentration, Agar
[12] = vapor phase, weight of volatile agent per volume unit of microtube, read-out: Minimal Inhibitory Concentration, Agar
[13] = ATCC29213, liquid phase, 37 °C, 24 h, read-out: Minimal Inhibitory Concentration, Broth

MIC ([1]; ATCC49247, liquid phase, 37 °C, 24 h, read-out: Minimal Inhibitory Concentration, Broth): 1 µg/mL (≈ 2.86 µM)
Compound: CC1(C)S[C@@H]2[C@H](NC(=O)[C@H](N)c3ccccc3)C(=O)N2[C@H]1C(=O)O [ampicillin, reference compound]

Compound: CN(C)[C@@H]1C(O)=C(C(N)=O)C(=O)[C@@]2(O)C(O)=C3C(=O)c4c(O)cccc4[C@@](C)(O)[C@H]3C[C@@H]12 [tetracycline, reference compound]
MIC [2, 10]: 0.25 µg/mL (≈ 0.563 µM)

Compound: Cc1cc(O)c(C(C)C)cc1O [thymohydroquinone]
IC80 at 72 h [3]: > 512 µg/mL
IC50 ([4]; Homo sapiens, MRC5, 72 h, read-out: IC50 ± SD): 2.64 ± 0.33 µg/mL (≈ 15.9 µM)
level of cytotoxic effect (WHO classification) ([4]; classified by IC50 in lung fibroblast cells): moderate toxicity
TI ([4]; therapeutic index, TI = IC80/x¯ -MIC): >34.13
x¯ -MIC [5]: 15 µg/mL
MIC [2, 10]: 32 µg/mL (≈ 193 µM)
MIC [2, 11]: 32 µg/mL (≈ 193 µM)
MIC [2, 12]: 20 µg/mL (≈ 120 µM)
MIC [6, 13]: 8 µg/mL (≈ 48.1 µM)
MIC ([6]; ATCC29213, vapor phase, 37 °C, 24 h, read-out: Minimal Inhibitory Concentration, Agar): 16 µg/mL (≈ 96.3 µM)
MIC ([6]; ATCC29213, vapor phase, weight of volatile agent per volume unit of microtube, read-out: Minimal Inhibitory Concentration, Agar): 10 µg/mL (≈ 60.2 µM)
MIC [7, 10]: 16 µg/mL (≈ 96.3 µM)
MIC [7, 11]: 32 µg/mL (≈ 193 µM)
MIC [7, 12]: 20 µg/mL (≈ 120 µM)
MIC ([1]; ATCC49247, 24 h, read-out: Minimal Inhibitory Concentration, Agar): 8 µg/mL (≈ 48.1 µM)
MIC ([1]; ATCC49247, 24 h, read-out: Minimal Inhibitory Concentration, Broth): 4 µg/mL (≈ 24.1 µM)
MIC ([1]; ATCC49247, read-out: Minimal Inhibitory Concentration, Agar): 5 µg/mL (≈ 30.1 µM)
MIC [8]: 400 µg/mL (≈ 2410 µM)
cell growth inhibition ([9]; at 10 µg/mL): 21%
cell growth inhibition ([9]; at 100 µg/mL): 63%

Compound: Cc1onc(-c2ccccc2)c1C(=O)N[C@@H]1C(=O)N2[C@@H]1SC(C)(C)[C@@H]2C(=O)O [oxacillin, reference compound]
MIC [6, 13]: 0.5 µg/mL (≈ 1.25 µM)
